Key:
[1] = tested on: bedstraw; assay: Test B pre/postemergence bedstraw; type: in vivo, Galium aparine
Summary of the method: (§1)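 Response is a visual 0-to-10 score relative to untreated plants, where 0 means no effect and 10 means complete control, taken twelve to sixteen days after application. Treatments went onto soil at planting and onto foliage of 1- to 4-leaf plants, using a surfactant-containing non-phytotoxic solvent.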

[2] = tested on: wheat; assay: Test B pre/postemergence wheat; type: in vivo, Triticum aestivum
Summary of the method: as §1

[3] = tested on: cocklebur; assay: Test B pre/postemergence cocklebur; type: in vivo, Xanthium strumarium
Summary of the method: as §1

[4] = tested on: corn; assay: Test B pre/postemergence corn; type: in vivo, Zea mays
Summary of the method: as §1

[5] = tested on: velvetleaf; assay: Test B pre/postemergence velvetleaf; type: in vivo, Abutilon theophrasti
Summary of the method: as §1

[6] = tested on: morningglory; assay: Test B pre/postemergence morningglory; type: in vivo, Ipomoea hederacea
Summary of the method: as §1

[7] = tested on: rape; assay: Test B pre/postemergence rape; type: in vivo, Brassica napus
Summary of the method: as §1

[8] = tested on: sugar beet; assay: Test B pre/postemergence sugar beet; type: in vivo, Beta vulgaris
Summary of the method: as §1

[9] = tested on: rice; assay: Test B flood test rice; type: in vivo, Oryza sativa
Summary of the method: (§2)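 Plants were grown to the 2-leaf stage before treatment with test chemical, then held in a greenhouse for twelve to sixteen days. Injury was visually rated against untreated controls on a 0–10 scale, where 0 is no effect and 10 is complete control.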

[10] = tested on: pigweed; assay: Test B pre/postemergence pigweed; type: in vivo, Amaranthus retroflexus
Summary of the method: as §1

[11] = tested on: wild oat; assay: Test B pre/postemergence wild oat; type: in vivo, Avena fatua
Summary of the method: as §1

[12] = tested on: smallflower flatsedge; assay: Test B flood test smallflower flatsedge; type: in vivo, Cyperus difformis
Summary of the method: as §2

[13] = tested on: surinam grass; assay: Test B pre/postemergence surinam grass; type: in vivo, Brachiaria decumbens
Summary of the method: as §1

[14] = tested on: soybean; assay: Test B pre/postemergence soybean; type: in vivo, Glycine max
Summary of the method: as §1

[15] = tested on: blackgrass; assay: Test B pre/postemergence blackgrass; type: in vivo, Alopecurus myosuroides
Summary of the method: as §1

[16] = tested on: giant foxtail; assay: Test B pre/postemergence giant foxtail; type: in vivo, Setaria faberii
Summary of the method: as §1

[17] = Postemergence, Rate 62 g/ha, scale of 0 to 10, 0 is no effect, 10 is complete control
[18] = Postemergence, Rate 125 g/ha, scale 0 to 10, 0 is no effect, 10 is complete control
[19] = Postemergence, Rate 500 g/ha, scale 0 to 10, 0 is no effect, 10 is complete control
[20] = Preemergence, Rate 62 g/ha, scale of 0 to 10 where 0 is no effect and 10 is complete control
[21] = Rate 250 g/ha, Postemergence, scale of 0 to 10 where 0 is no effect and 10 is complete control
[22] = Preemergence, Rate 125 g/ha, scale 0 to 10, 0 is no effect, 10 is complete control
[23] = Preemergence, Rate 500 g/ha, scale of 0 to 10 where 0 is no effect and 10 is complete control
[24] = Rate 62 g/ha, flood test species, Pre-emergence, visual evaluation after twelve to sixteen days
[25] = Rate 125 g/ha, under heading Pre-emergence, flood test species, visual evaluation after twelve to sixteen days
[26] = Rate 250 g/ha, Pre-emergence (flood test species), scale 0 to 10, 0 is no effect, 10 is complete control
[27] = Rate 500 g/ha, Pre-emergence section of Table B, 0 to 10 scale (0 no effect, 10 complete control)

SMILES: CC(C)N(C(=O)n1oc(=O)n(CCC2OCCO2)c1=O)c1ccc(Cl)cc1 [Compound 531]
- Bedstraw plant response rating [1, 17]: 0
- Bedstraw plant response rating [1, 18]: 0
- Plant response rating, Bedstraw [1, 19]: 3
- Plant response rating, Bedstraw [1, 20]: 0
- Bedstraw plant response rating (0 to 10 scale) ([1]; Preemergence, Rate 250 g/ha): 0
- Plant response rating, Bedstraw [1, 21]: 0
- Wheat plant response rating [2, 17]: 0
- Wheat plant response rating [2, 18]: 0
- Plant response rating, Wheat [2, 19]: 0
- Plant response rating, Wheat [2, 20]: 0
- Wheat plant response rating [2, 22]: 0
- Wheat plant response rating (0 to 10 scale) ([2]; Preemergence, Rate 250 g/ha): 0
- Plant response rating, Wheat [2, 21]: 0
- Cocklebur plant response rating [3, 17]: 0
- Cocklebur plant response rating [3, 18]: 0
- Plant response rating, Cocklebur [3, 19]: 5
- Plant response rating, Cocklebur [3, 20]: 0
- Cocklebur plant response rating [3, 22]: 0
- Cocklebur plant response rating (0 to 10 scale) ([3]; Preemergence, Rate 250 g/ha): 0
- Cocklebur plant response rating [3, 23]: 0
- Plant response rating, Cocklebur [3, 21]: 2
- Corn plant response rating [4, 17]: 0
- Corn plant response rating [4, 18]: 0
- Plant response rating, Corn [4, 19]: 0
- Plant response rating, Corn [4, 20]: 0
- Corn plant response rating [4, 22]: 0
- Corn plant response rating (0 to 10 scale) ([4]; Preemergence, Rate 250 g/ha): 0
- Corn plant response rating [4, 23]: 0
- Plant response rating, Corn [4, 21]: 0
- Velvetleaf plant response rating [5, 17]: 0
- Velvetleaf plant response rating [5, 18]: 0
- Plant response rating, Velvetleaf [5, 19]: 3
- Plant response rating, Velvetleaf [5, 20]: 0
- Velvetleaf plant response rating [5, 22]: 0
- Velvetleaf plant response rating (0 to 10 scale) ([5]; Preemergence, Rate 250 g/ha): 2
- Velvetleaf plant response rating [5, 23]: 5
- Plant response rating, Velvetleaf [5, 21]: 0
- Morningglory plant response rating [6, 17]: 2
- Morningglory plant response rating [6, 18]: 4
- Plant response rating, Morningglory [6, 20]: 0
- Morningglory plant response rating [6, 22]: 0
- Morningglory plant response rating (0 to 10 scale) ([6]; Preemergence, Rate 250 g/ha): 0
- Morningglory plant response rating [6, 23]: 0
- Plant response rating, Morningglory [6, 21]: 4
- Rape plant response rating [7, 17]: 0
- Rape plant response rating [7, 18]: 0
- Plant response rating, Rape [7, 19]: 2
- Plant response rating, Rape [7, 20]: 0
- Rape plant response rating [7, 22]: 0
- Rape plant response rating (0 to 10 scale) ([7]; Preemergence, Rate 250 g/ha): 0
- Plant response rating, Rape [7, 21]: 0
- Sugarbeets plant response rating [8, 17]: 0
- Sugarbeets plant response rating [8, 18]: 0
- Plant response rating, Sugarbeets [8, 19]: 6
- Plant response rating, Sugarbeets [8, 20]: 0
- Sugarbeets plant response rating [8, 22]: 4
- Sugarbeets plant response rating (0 to 10 scale) ([8]; Preemergence, Rate 250 g/ha): 3
- Plant response rating, Sugarbeets [8, 21]: 0
- Plant response rating, Rice (0 to 10 scale, 0 is no effect, 10 is complete control) [9, 24]: 0
- Rice plant response rating (0 to 10 scale, 0 is no effect, 10 is complete control) [9, 25]: 0
- Rice plant response rating [9, 26]: 0
- Rice plant response rating [9, 27]: 0
- Redroot pigweed plant response rating [10, 17]: 0
- Redroot pigweed plant response rating [10, 18]: 0
- Plant response rating, Redroot pigweed [10, 19]: 0
- Plant response rating, Redroot pigweed [10, 20]: 0
- Redroot pigweed plant response rating [10, 22]: 0
- Redroot pigweed plant response rating (0 to 10 scale) ([10]; Preemergence, Rate 250 g/ha): 0
- Plant response rating, Redroot pigweed [10, 21]: 0
- Wild oats plant response rating [11, 17]: 0
- Wild oats plant response rating [11, 18]: 0
- Plant response rating, Wild oats [11, 19]: 0
- Plant response rating, Wild oats [11, 20]: 0
- Wild oats plant response rating [11, 22]: 0
- Wild oats plant response rating (0 to 10 scale) ([11]; Preemergence, Rate 250 g/ha): 0
- Plant response rating, Wild oats [11, 21]: 0
- Plant response rating, S. Flatsedge (0 to 10 scale, 0 is no effect, 10 is complete control) [12, 24]: 0
- S. Flatsedge plant response rating (0 to 10 scale, 0 is no effect, 10 is complete control) [12, 25]: 0
- S. Flatsedge plant response rating [12, 26]: 0
- S. Flatsedge plant response rating [12, 27]: 0
- B. signalgrass plant response rating [13, 17]: 0
- B. signalgrass plant response rating [13, 18]: 0
- Plant response rating, B. signalgrass [13, 19]: 4
- Plant response rating, B. signalgrass [13, 20]: 2
- B. signalgrass plant response rating [13, 22]: 2
- B. signalgrass plant response rating (0 to 10 scale, 0 is no effect, 10 is complete control) ([13]; Preemergence, Rate 250 g/ha): 2
- Plant response rating, B. signalgrass [13, 21]: 0
- Soybean plant response rating [14, 17]: 3
- Soybean plant response rating [14, 18]: 3
- Plant response rating, Soybean [14, 19]: 6
- Plant response rating, Soybean [14, 20]: 0
- Soybean plant response rating [14, 22]: 0
- Soybean plant response rating (0 to 10 scale) ([14]; Preemergence, Rate 250 g/ha): 0
- Soybean plant response rating [14, 23]: 0
- Plant response rating, Soybean [14, 21]: 6
- Blackgrass plant response rating [15, 17]: 0
- Blackgrass plant response rating [15, 18]: 0
- Plant response rating, Blackgrass [15, 19]: 6
- Plant response rating, Blackgrass [15, 20]: 2
- Blackgrass plant response rating [15, 22]: 9
- Blackgrass plant response rating (0 to 10 scale) ([15]; Preemergence, Rate 250 g/ha): 9
- Plant response rating, Blackgrass [15, 21]: 0
- Giant foxtail plant response rating [16, 17]: 0
- Giant foxtail plant response rating [16, 18]: 8
- Plant response rating, Giant foxtail [16, 19]: 9
- Plant response rating, Giant foxtail [16, 20]: 9
- Giant foxtail plant response rating [16, 22]: 10
- Giant foxtail plant response rating (0 to 10 scale) ([16]; Preemergence, Rate 250 g/ha): 10
- Giant foxtail plant response rating [16, 23]: 10
- Plant response rating, Giant foxtail [16, 21]: 9
